From patent publication US5079235A, “Antiviral compounds” (Burroughs Wellcome Co., priority 1986, dated 1992)

What was measured:
herpes simplex = conditions: in vitro; cited from earlier work
vaccinia = conditions: in vitro; cited from earlier work
[1] = tested on: Human cytomegalovirus (HCMV); experiment: Human cytomegalovirus (HCMV) plaque reduction assay in MRC5 or Detroit 532 cells; assay type: cell-based; conditions: for IC50: Human betaherpesvirus 5, HCMV, MRC5 or Detroit 532 cells, plaque reduction
Experimental: Human cytomegalovirus (HCMV) is assayed in monolayers of either MRC5 cells (human embryonic lung) or Detroit 532 cells (human foreskin fibroblasts) in multiwell trays. Activity of compounds is determined in the plaque reduction assay, in which a cell monolayer is infected with a suspension of HCMV, and then overlaid with nutrient agarose in the form of a gel to ensure that there is no spread of virus throughout the culture. A range of concentrations of compound of known molarity was incorporated in the nutrient agarose overlay. Plaque numbers of each concentration are expressed as percentage of the control and a dose-response curve is drawn. From this curve the 50% inhibitory concentration (IC50) is estimated.

[2] = tested on: Varicella zoster virus (VZV); experiment: Varicella zoster virus (VZV) assayed in MRC5 cells, plaque reduction method without agarose overlay; assay type: cell-based; conditions: for IC50: Human alphaherpesvirus 3, MRC5 cells
[3] = Cell toxicity in Vero cell growth inhibition assay (MTT); assay type: cell-based; conditions: monkey; Vero cells, 50% inhibition of cell viability (MTT) at 96 hours; read-out: CCID50 at 96 hr
Experimental: Cell toxicity is assessed in a cell growth inhibition assay. Subconfluent cultures of Vero cells grown on 96-well microtiter dishes are exposed to different dilutions of drug, and cell viability determined daily on replicate cultures using uptake of a tetrazolium dye (MTT). The concentration required for a 50% inhibition of cell viability at 96 hours is termed CCID50.

Structure (SMILES)	antiviral activity against herpes simplex (in words) (herpes simplex)	antiviral activity against vaccinia (in words) (vaccinia)	activity against CMV (in words) ([1]; CMV)	anti-VZV activity (in words) [2]	IC50 [2]	CC50 at 96 h [3]	IC50 [1]
C#Cc1cn([C@H]2C[C@H](O)[C@@H](CO)O2)c(=O)[nH]c1=O [2'-deoxy-5-ethynyluridine]	did not demonstrate any effect of use in human medicinal chemotherapy	did not demonstrate any effect of use in human medicinal chemotherapy	–	–	–	–	–
C#Cc1cn([C@H]2C[C@H](O)[C@@H](CO)O2)c(=O)n(C(=O)c2ccccc2)c1=O [Example 1, 3-N-Benzoyl-2'-deoxy-5-ethynyluridine]	–	–	high activity against CMV	–	–	–	–
CC#Cc1cn([C@H]2C[C@H](O)[C@@H](CO)O2)c(=O)nc1N [Example 2, 2'-Deoxy-5-propynylcytidine]	–	–	–	potent anti-VZV activity	3.3 µM	> 300 µM	> 20 µM
CC#Cc1cn([C@H]2C[C@H](O)[C@@H](CO)O2)c(=O)n(C(=O)c2ccccc2)c1=O [Example 4, 3-N-Benzoyl-2'-deoxy-5-propynyluridine]	–	–	–	potent anti-VZV activity	2.2 µM	> 500 µM	28.5 µM
